IC50 data for 1 compound are collected here from patent publication US12234232B2, “Aromatic heterocyclic compound with kinase inhibitory activity” (SHANGHAI ENNOVABIO PHARMACEUTICALS CO., LTD., priority 2018, dated 2025).

Test [1] deals with T1, JAK2 (Homo sapiens, UniProt O60674). Kind of test: In vitro JAK2 kinase activity assay (HTRF kinEASE TK). Also noted: purchased Carna Biosciences. Format: biochemical. To be noted: 2.7 μM ATP, 25 minutes, room temperature; read-out: IC50 JAK2 (enzyme activity assay). The method in brief: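 HTRF kinase reaction with 0.001 ng/μl recombinant human JAK2, 1 μM biotinylated TK substrate peptide, 2.7 μM ATP, 5 mM MgCl2, 1 mM DTT, 25 min at room temperature; compounds 10 μM–0.04 nM, 4-fold steps, duplicate, 1% DMSO. Detection overnight; 665/620 ratio converted to % inhibition, IC50 by 4-parameter fit.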
T1 sequence (O60674 whole entry): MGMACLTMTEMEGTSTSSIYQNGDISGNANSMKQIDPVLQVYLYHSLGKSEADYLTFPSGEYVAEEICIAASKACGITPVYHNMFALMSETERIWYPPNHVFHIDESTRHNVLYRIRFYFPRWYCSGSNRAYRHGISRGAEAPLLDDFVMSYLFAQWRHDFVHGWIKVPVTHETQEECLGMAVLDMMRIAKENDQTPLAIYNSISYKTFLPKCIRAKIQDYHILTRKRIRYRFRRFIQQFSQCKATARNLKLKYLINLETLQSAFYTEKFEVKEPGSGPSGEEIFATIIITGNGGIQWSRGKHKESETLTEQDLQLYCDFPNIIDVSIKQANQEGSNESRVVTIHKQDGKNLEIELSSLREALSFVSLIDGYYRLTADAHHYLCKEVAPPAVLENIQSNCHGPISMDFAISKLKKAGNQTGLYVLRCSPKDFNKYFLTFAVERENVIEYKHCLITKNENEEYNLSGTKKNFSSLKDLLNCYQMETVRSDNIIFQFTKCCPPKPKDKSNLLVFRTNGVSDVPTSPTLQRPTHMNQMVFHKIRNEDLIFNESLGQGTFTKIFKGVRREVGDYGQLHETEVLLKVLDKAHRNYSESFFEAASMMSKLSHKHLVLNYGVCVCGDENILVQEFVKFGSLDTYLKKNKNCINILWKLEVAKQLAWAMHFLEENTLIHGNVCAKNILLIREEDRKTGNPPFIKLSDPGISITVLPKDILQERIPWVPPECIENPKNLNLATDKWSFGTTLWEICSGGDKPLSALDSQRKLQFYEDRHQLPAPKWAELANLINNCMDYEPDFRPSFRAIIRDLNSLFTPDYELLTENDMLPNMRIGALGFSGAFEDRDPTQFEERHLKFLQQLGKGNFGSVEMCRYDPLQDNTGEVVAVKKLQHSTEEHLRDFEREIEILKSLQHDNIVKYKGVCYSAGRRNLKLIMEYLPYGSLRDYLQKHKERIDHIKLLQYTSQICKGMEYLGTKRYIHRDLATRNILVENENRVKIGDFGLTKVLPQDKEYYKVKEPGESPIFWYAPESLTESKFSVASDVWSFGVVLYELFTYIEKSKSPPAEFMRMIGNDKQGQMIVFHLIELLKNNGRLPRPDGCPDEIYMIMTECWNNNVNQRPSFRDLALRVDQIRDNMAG

Test [2] addresses T1, JAK2. Briefly: Cellular JAK2 activity assay: EPO-stimulated STAT5 phosphorylation in TF-1 cells. The following applies: EPO (10 U/mL), pSTAT5, read-out: IC50 Cell JAK2. It counts as cell-based. More on the design: endogenous in cells; host or cells: TF-1 cells (ATCC).

As for `CC[C@H](C(=O)Nc1nccc2c(-c3nc(Nc4cn(C)nc4OC)ncc3C)c[nH]c12)N1CCN(C)CC1` [Example 4, (R)—N-(3-(2-((3-Methoxy-1-methyl-1H-pyrazol-4-yl)amino)-5-methylpyrimidin-4-yl)-1H-pyrrolo[2,3-c]pyridin-7-yl)-2-(4-methylpiperazin-1-yl)butanamide], the values for the IC50 on JAK2 [1] and at JAK2 [2] were below 0.1 µM and below 10 µM, respectively.
